{"source": "patent EP1056700B1", "about": "“MEDICINAL USES OF PHENYLALKANOLS AND DERIVATES” (ZingoTX Pty Ltd, priority 1997, dated 1999)", "key": {"[1]": {"tested_on": "brine shrimp (Artemia salina Leach)", "assay": "Brine shrimp toxicity bioassay", "format": "in vivo", "source_text": "(§1) The brine shrimp assay procedure determines LC50 values of active compounds. Activities of a broad range of known active compounds are manifested as toxicity to brine shrimp (Artemia salina Leach). There are many applications of the assay including analysis of toxic substances, anaesthetics, morphine-like substances and cocarcinogenicity of phorbol esters.\n(§2) The method for testing solvent toxicity used was basically that reported by J L McLaughlin in Methods of Plant Biochemistry (1991), vol. 6 (K Hostettman, ed.), Academic Press, London, 1-32. DMSO solutions of the substances to be tested were added directly to the vials containing the brine shrimp. As the concentration of DMSO that we wished to use was higher than the recommended 1% v/v testing of the toxicity of the DMSO was therefore necessary. The concentrations of DMSO tested on the shrimp, along with the results from the assay which was done in duplicate are listed below.\n(§3) Brine shrimp toxicity was assayed, except for some minor modifications, according to the method of McLaughlin et al as reported in Brine Shrimp: A convenient bioassay for active plant constituents, B N Meyer, N R Ferrigni, J E Putnam, L B Jacobsen, D E Nichols and J L McLaughlin in Planta Medica (1982), 45, 31-34 and Crown gall tumours on potato discs and brine shrimp lethality: Two simple bioassays for higher plant screening and fractionation. J L McLaughlin. Methods of Plant Biochemistry (1991), vol. 6 (K Hostettman, ed.), Academic Press, London, 1-32. Ten shrimp were transferred to each of the vials and the volume adjusted to 4.9 mL. Each dose was performed in triplicate, including the control. In quick succession, the appropriate volume of additional DMSO for each dose, required to achieve a final concentration of 2%, was added before the appropriate volume of test solution. The vials were gently mixed and the time noted. After 24 hours, the number of survivors were counted and % mortality was determined. The test compounds were assayed at concentrations of 100 µM, 25 µM, 5 µM, 1 µM and 0.2 µM (and where appropriate concentrations of 0.04 µM and 0.008 µM).\n(§4) The brine shrimp were able to survive without food in the vials over the 24 hour period and were therefore not fed.\n(§5) The dose-response curves were constructed using the Sigmaplot computer program and the LC50 value was calculated from the intersection point of the curve and the 50 % mortality line. The LC50 values were expressed in both µM and µg/mL."}, "[2]": {"tested_on": "rat mesenteric artery", "assay": "Vasodilation on rat mesenteric small arteries", "conditions": "relaxation of small arteries (200-300 µm) precontracted with endothelin", "source_text": "Small arteries (200-300 µm in diameter) isolated from rat mesentery were precontracted with endothelin prior to addition of the test substances and tested for relaxation."}, "[3]": {"assay": "Brine shrimp toxicity bioassay", "format": "in vivo", "conditions": "Artemia salina (brine shrimp), in vivo; 24 hours, 2% DMSO", "source_text": "as §1, §2, §3, §4, §5"}, "[4]": {"target": "T1, Lipoxygenase (LP) (Rattus norvegicus, UniProt P12527)", "T1 construct": "cell-free enzyme (Wong et al, 1991) prepared from rat basophilic leukemia (RBL) 2H3 cell lines; endogenous in cells; host or cells: RBL 2H3 (rat basophilic leukemia), 15,000 g supernatant of cells disrupted by nitrogen cavitation", "T1 sequence (P12527 1-673)": "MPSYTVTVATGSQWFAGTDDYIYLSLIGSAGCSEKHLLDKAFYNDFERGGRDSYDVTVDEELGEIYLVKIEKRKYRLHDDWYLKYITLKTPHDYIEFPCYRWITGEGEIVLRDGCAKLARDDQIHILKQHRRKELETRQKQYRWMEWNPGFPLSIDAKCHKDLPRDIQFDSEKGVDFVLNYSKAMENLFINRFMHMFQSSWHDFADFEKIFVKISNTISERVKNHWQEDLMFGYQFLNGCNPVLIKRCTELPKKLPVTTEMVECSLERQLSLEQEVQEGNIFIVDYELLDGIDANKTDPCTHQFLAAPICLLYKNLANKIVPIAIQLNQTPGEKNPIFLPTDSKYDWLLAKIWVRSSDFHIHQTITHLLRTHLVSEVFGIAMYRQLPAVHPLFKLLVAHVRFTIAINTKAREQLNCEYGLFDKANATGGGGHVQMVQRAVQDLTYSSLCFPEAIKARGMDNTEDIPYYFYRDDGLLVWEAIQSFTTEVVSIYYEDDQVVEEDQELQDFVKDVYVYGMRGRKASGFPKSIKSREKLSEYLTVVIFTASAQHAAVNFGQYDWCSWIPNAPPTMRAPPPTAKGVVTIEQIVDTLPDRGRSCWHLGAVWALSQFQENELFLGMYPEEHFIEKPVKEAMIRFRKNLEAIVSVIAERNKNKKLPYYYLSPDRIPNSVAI", "assay": "Lipoxygenase assay with cell-free enzyme from RBL 2H3 cells (EIA)", "format": "biochemical", "conditions": "final concentration of 10 µM", "description": "Lipoxygenase (LP) assay was performed with cell-free enzyme (Wong et al, 1991) prepared from rat basophilic leukemia (RBL) 2H3 cell lines. Cells were cultured in EMEM containing 10% fetal calf serum and antibiotic until cells reached confluence. Harvested cells were resuspended in Hepes (10 mM) buffer, pH 7.4, containing 1 mM EDTA at 1 x 10^7 cells/ml, and disrupted by nitrogen cavitation using a Parr bomb at 750 psi for 15 min. The broken cells were centrifuged at 15,000 g for 30 min. Aliquots (0.1 ml) of the supernatant were preincubated with or without drugs in Hepes buffer (10 mM Hepes, pH 7, 1 mM EDTA and 150 mM NaCl) for 5 min, and the reaction was initiated with the addition of 50 µl of CaCl2 (16 mM), 50 µl of ATP (2 mM), 5 µl of PAF (2.5 mg/ml) and 5 µl of AA (2.5 mM). The reaction mixture ([…]) was incubated at room temperature for a further 8 min, then diluted with EIA buffer at 1/200 and 1/2000 dilutions and stored on ice for EIA following the protocol provided with the kit.\nValidation of LP enzyme activity was carried out by a UV spectrophotometric method in which the enzyme activity was characterised against various concentrations of Ca^2+, ATP, PAF and AA with the measurement of the formation of diene conjugated products of LP at 235 nm.\nAll compounds were dissolved in DMSO and assayed at a final concentration of 10 µM. NDGA was used as reference compound. The concentration of DMSO in the assay was maintained at 1.5%."}, "[5]": {"tested_on": "guinea pig atria", "assay": "Organ bath assay on isolated guinea pig atria (rate and force of contraction)", "conditions": "guinea pig atria", "description": "Male guinea pigs, 3-4 weeks old, were killed by rapid cervical dislocation without induced anaesthesia. Then, the guinea pigs were dissected to isolate the atria which were immediately mounted vertically in an organ bath containing Krebs-Henseleit solution oxygenated with carbogen.\nOne gram tension was applied to the atria and the base line continuously adjusted until it was stable for 20 mins. The rate and force of contraction were recorded using Mac Lab equipment.\nTest substances in DMSO were assayed to a maximum concentration of 50 µM at a final concentration of 2.5 % of DMSO."}, "[6]": {"target": "T2, SR Ca^2+-ATPase (Canis lupus familiaris, UniProt O46674)", "T2 construct": "Effect of gingerols and their derivatives on the Ca^2+-ATPase activity of dog cardiac SR; from tissue; host or cells: dog heart (cardiac sarcoplasmic reticulum)", "T2 sequence (O46674 whole entry)": "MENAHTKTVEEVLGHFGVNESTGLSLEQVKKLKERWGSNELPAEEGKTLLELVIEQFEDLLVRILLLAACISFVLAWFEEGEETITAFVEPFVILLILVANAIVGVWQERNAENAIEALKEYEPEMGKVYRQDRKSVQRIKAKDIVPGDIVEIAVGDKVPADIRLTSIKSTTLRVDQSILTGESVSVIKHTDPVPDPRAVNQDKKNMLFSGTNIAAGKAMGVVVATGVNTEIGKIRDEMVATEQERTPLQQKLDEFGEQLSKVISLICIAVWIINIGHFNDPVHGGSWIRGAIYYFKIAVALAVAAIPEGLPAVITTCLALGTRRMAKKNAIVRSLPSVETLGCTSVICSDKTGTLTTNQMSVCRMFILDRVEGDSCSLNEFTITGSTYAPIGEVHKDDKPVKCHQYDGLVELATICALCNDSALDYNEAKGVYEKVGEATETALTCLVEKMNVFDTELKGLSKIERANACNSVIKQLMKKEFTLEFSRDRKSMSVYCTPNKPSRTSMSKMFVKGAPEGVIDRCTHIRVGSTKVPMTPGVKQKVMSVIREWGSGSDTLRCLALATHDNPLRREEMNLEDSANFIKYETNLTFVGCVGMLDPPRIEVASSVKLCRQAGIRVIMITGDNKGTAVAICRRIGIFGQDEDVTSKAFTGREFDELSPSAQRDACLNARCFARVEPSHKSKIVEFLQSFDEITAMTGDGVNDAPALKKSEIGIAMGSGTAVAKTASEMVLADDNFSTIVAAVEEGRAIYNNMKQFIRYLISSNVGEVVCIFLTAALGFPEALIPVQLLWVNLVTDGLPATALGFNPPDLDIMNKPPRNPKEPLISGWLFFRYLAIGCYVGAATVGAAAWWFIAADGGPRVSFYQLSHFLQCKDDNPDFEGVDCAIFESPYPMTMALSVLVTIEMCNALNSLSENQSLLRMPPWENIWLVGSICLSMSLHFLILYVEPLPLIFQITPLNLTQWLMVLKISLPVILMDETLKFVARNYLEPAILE", "assay": "Sarcoplasmic reticulum Ca^2+-ATPase assay", "format": "biochemical, dog", "conditions": "for SR Ca^2+-ATPase Activity: 0 µM = 100, dog cardiac SR; for IC50: read-out: SR Ca^2+-ATPase IC50 = conc. for 50% inhibition", "description": "A portion at each concentration (54 µl) was aliquoted into 4 designated wells of the microplate (two of four wells were controls). Each well was mixed with ATP solution (20 mM, 6 µl), except the controls, using an 8 channel pipette. The controls were assayed in the absence of ATP or calcium.\nThe plate was incubated with the lid on, for 30 min at 37°C, colour reagent (160 µl) was then added and mixed with citrate solution (34%, 30 µl). The plate was developed at room temperature for 30 min then absorbance at 655 nm was read from the microplate reader. The Ca^2+-ATPase activity was quantitated, from a Pi standard curve, as concentration of liberated inorganic phosphate.\nStock solutions (10 mM) of test substance were prepared in DMSO, then series dilutions were made either in DMSO or in 1M HEPES to produce the dose-response concentrations. The maximum concentration of DMSO in the final assay solution was 2.5%.\nEach concentration of test substance was assayed in duplicate in the presence and absence of ATP or calcium. Phosphate standards are run on each plate as follows:\nEffect of gingerols and their derivatives on the Ca^2+-ATPase activity of dog cardiac SR."}}, "note": "“And” between values parts separate entries of the source, which are not always exact repeats. Identical values can stand only once."}
{"smiles": "C[S+](C)[O-]", "note": "[DMSO, dimethyl sulfoxide]", "values": [{"measurement": "% Deaths", "setting": "[1]; Conc 1 % v/v", "result": 0, "unit": "%"}, {"measurement": "% Deaths", "setting": "[1]; Conc 2 % v/v", "result": 0, "unit": "%"}, {"measurement": "% Deaths", "setting": "[1]; Conc 3 % v/v", "result": 0, "unit": "%"}, {"measurement": "% Deaths", "setting": "[1]; Conc 4 % v/v", "result": 0, "unit": "%"}, {"measurement": "% Deaths", "setting": "[1]; Conc 5 % v/v", "result": 9, "unit": "%"}, {"measurement": "% Deaths", "setting": "[1]; Conc 7 % v/v", "result": 12, "unit": "%"}, {"measurement": "% Deaths", "setting": "[1]; Conc 9 % v/v", "result": 18, "unit": "%"}, {"measurement": "% Deaths", "setting": "[1]; Conc 11 % v/v", "result": 57, "unit": "%"}, {"measurement": "% Deaths", "setting": "[1]; Conc 13 % v/v", "result": 96, "unit": "%"}, {"measurement": "% Deaths", "setting": "[1]; Conc 15 % v/v", "result": 100, "unit": "%"}, {"measurement": "% Deaths", "setting": "[1]; Conc 20 % v/v", "result": 100, "unit": "%"}, {"measurement": "% Deaths", "setting": "[1]; Conc 25 % v/v", "result": 100, "unit": "%"}]}
{"smiles": "CCCCCCCCCC(O)CCc1ccc(O)c(OC)c1", "note": "(single isomer, unassigned; enantiomer-1) [enantiomer-1, enantiomer-1 of 1-(4-hydroxy-3-methoxyphenyl)dodecan-3-ol]", "values": [{"measurement": "EC50", "setting": "[2]", "result": 500, "unit": "nM"}]}
{"smiles": "CCCCCCCCCC(O)CCc1ccc(O)c(OC)c1", "note": "(single isomer, unassigned) [enantiomer-2, 1-(4-hydroxy-3-methoxyphenyl)dodecan-3-ol]", "values": [{"measurement": "EC50", "setting": "[2]; Rattus norvegicus", "result": 320, "unit": "nM"}]}
{"smiles": "CCCCCCCC(O)CC(=O)C=Cc1ccc(O)cc1", "note": "(stereo not shown) [5-hydroxy-1-(4-hydroxyphenyl)dodecan-1-ene-3-one]", "values": [{"measurement": "LC50 at 24 h", "setting": "[3]", "result": "2.6 µM and 0.75 µg/mL"}]}
{"smiles": "CCCCCCCC=CC(=O)C=Cc1ccc(O)c(OC)c1", "note": "[1-(4-hydroxy-3-methoxyphenyl)dodecane-1,4-diene-3-one]", "values": [{"measurement": "LC50 at 24 h", "setting": "[3]", "result": "5.4 µM and 1.6 µg/mL"}, {"measurement": "activity at 10 µM", "setting": "[4]", "result": 2, "unit": "%"}]}
{"smiles": "CCCCCCCCCC(O)CC(=O)c1ccc(O)c(OC)c1", "note": "(stereo not shown) [3-hydroxy-1-(4-hydroxy-3-methoxyphenyl)dodecan-1-one]", "values": [{"measurement": "FORCE OF CONTRACT^n ↑ increase", "setting": "[5]; @ 30 (µM)", "result": "↑11% @ 30"}, {"measurement": "LC50 at 24 h", "setting": "[3]", "result": "10 µM and 3.2 µg/mL"}, {"measurement": "SR Ca^2+-ATPase Activity", "setting": "[6]; 1 µM", "result": 122}, {"measurement": "SR Ca^2+-ATPase Activity", "setting": "[6]; 5 µM", "result": 111}, {"measurement": "SR Ca^2+-ATPase Activity", "setting": "[6]; 10 µM", "result": 133}, {"measurement": "SR Ca^2+-ATPase Activity", "setting": "[6]; 25 µM", "result": 147}, {"measurement": "SR Ca^2+-ATPase Activity", "setting": "[6]; 50 µM", "result": 158}, {"measurement": "SR Ca^2+-ATPase Activity", "setting": "[6]; 100 µM", "result": 149}, {"measurement": "SR Ca^2+-ATPase ↑ increase or stimulation", "setting": "[6]; @ 10 µM", "result": "↑60% @ 10"}, {"measurement": "IC50", "setting": "[6]", "result": 50000, "unit": "nM"}]}
{"smiles": "CCCCCC(O)CC(=O)CCc1ccc(O)cc1", "note": "(stereo not shown) [[6]-demethoxygingerol, 5-hydroxy-1-(4-hydroxyphenyl)decan-3-one]", "values": [{"measurement": "FORCE OF CONTRACT^n", "setting": "[5]; result in words", "result": "inactive"}, {"measurement": "HEART RATE", "setting": "[5]; result in words", "result": "inactive"}, {"measurement": "LC50 at 24 h", "setting": "[3]", "result": "> 100 µM and > 26 µg/mL"}, {"measurement": "IC50", "setting": "[6]", "result": "> 100000", "unit": "nM"}]}
